We go through 32 molecules from ChEMBL document CHEMBL3396949, “Synthesis, biological evaluation and molecular docking study of novel piperidine and piperazine derivatives as multi-targeted agents to treat Alzheimer's disease” (Bioorg Med Chem, 2015).

SMILES strings stand for the structures.

One data set has as its target Acetylcholinesterase (Electrophorus electricus, UniProt O42275). In words: Inhibition of electric eel AChE using acetylthiocholine iodide as substrate incubated for 5 mins by Ellman's method. For orientation: DTNB colorimetry detects thiols as they appear.
Another data set addresses Cholinesterase (Equus caballus, UniProt P81908). In words: Inhibition of equine serum BChE using butyrylthiocholine iodide as substrate incubated for 5 mins by Ellman's method.
Data set [1] can be described thus: Selectivity ratio of IC50 for equine serum BChE to IC50 for electric eel AChE.
Data set [2] in a line: Antioxidant activity assessed as trolox equivalent of AAPH radical scavenging activity at 1 to 10 uM preincubated for 15 mins followed by AAPH challenge measured every min for 80 mins by ORAC-FL assay.
The target of data set [3] is Amyloid-beta precursor protein (Homo sapiens) (UniProt P05067). The data set can be described thus: Inhibition of self-mediated amyloid beta (1 to 42) (unknown origin) aggregation at 25 uM after 48 hrs by thioflavin T fluorescence assay relative to control.
The target is the same in data set [4]. The data set can be described thus: Ratio of curcumin to compound for self-mediated amyloid beta (1 to 42) (unknown origin) aggregation at 25 uM after 48 hrs by thioflavin T fluorescence assay relative to control.
For data set [5], the target named is Acetylcholinesterase (Electrophorus electricus) (UniProt O42275). The data set can be described thus: Ratio of donepezil IC50 to compound IC50 for electric eel AChE using acetylthiocholine iodide as substrate incubated for 5 mins by Ellman's method.
Sequence of Acetylcholinesterase (Electrophorus electricus) (O42275 24-633 limits assumed): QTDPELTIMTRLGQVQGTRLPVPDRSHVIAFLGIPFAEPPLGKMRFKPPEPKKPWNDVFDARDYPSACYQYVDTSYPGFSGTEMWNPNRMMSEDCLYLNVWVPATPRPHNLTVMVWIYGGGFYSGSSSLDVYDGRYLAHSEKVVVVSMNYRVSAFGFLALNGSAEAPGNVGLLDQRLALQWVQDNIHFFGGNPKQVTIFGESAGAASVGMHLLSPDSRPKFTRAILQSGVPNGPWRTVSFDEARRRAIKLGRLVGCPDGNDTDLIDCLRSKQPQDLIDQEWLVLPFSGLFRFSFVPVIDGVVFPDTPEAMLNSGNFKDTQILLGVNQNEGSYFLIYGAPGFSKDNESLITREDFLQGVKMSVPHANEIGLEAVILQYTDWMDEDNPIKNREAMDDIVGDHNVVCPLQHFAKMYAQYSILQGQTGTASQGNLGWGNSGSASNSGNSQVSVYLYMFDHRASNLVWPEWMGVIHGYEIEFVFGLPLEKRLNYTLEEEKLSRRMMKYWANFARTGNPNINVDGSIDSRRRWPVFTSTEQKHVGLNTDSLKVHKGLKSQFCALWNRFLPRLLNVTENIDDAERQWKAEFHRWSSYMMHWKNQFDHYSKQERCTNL

Sequence of Acetylcholinesterase (O42275 whole entry): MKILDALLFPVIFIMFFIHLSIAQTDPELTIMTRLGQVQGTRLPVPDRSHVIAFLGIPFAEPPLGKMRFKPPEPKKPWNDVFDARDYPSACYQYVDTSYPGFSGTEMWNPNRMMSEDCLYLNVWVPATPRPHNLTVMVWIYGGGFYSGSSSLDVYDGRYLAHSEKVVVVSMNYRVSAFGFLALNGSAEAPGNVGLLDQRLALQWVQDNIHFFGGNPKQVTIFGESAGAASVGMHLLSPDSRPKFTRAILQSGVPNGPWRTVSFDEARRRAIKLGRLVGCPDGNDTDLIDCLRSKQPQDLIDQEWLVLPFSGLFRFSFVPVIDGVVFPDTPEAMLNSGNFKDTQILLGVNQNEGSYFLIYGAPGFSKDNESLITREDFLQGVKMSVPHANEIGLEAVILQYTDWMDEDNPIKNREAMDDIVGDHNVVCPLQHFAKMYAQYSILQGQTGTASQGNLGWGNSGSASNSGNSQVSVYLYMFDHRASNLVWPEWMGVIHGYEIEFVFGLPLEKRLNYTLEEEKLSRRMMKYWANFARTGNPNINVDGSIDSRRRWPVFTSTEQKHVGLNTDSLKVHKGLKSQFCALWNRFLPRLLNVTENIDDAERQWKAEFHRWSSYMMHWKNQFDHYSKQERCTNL
Sequence of Cholinesterase (P81908 whole entry): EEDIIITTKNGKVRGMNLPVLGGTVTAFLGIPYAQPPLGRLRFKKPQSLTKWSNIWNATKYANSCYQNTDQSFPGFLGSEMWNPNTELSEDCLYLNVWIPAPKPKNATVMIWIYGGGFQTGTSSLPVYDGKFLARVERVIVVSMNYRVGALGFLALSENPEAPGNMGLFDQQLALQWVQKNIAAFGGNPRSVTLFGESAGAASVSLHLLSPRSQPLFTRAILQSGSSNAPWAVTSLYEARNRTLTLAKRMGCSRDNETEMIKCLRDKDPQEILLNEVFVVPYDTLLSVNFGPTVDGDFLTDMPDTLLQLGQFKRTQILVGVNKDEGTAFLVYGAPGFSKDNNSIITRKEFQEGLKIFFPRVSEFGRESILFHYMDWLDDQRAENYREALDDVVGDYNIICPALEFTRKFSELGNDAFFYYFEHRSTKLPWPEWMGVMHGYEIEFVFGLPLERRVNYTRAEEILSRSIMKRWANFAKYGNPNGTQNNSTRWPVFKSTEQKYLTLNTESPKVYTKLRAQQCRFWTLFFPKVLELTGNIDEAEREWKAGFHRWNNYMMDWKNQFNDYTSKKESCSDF
Sequence of Amyloid-beta precursor protein (Homo sapiens) (P05067 whole entry): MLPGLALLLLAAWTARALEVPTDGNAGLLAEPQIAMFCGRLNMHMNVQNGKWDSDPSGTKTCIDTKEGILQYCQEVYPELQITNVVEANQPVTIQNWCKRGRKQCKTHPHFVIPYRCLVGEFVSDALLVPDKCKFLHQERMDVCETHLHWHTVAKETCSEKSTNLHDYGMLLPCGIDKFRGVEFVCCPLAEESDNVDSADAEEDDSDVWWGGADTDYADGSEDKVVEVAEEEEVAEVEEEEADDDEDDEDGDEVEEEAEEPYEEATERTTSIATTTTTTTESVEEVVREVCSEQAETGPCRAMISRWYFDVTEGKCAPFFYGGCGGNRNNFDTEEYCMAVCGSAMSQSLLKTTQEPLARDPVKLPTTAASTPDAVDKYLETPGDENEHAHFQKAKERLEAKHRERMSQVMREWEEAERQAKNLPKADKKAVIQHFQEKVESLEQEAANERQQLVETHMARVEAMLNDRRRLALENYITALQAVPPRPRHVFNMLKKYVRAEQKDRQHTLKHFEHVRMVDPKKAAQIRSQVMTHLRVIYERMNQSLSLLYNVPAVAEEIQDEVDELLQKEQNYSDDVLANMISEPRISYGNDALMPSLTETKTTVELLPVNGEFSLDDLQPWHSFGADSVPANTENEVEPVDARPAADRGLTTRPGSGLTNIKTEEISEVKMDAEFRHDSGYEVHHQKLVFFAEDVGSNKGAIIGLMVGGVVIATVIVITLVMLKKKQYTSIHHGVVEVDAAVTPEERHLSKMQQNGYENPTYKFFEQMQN

For the molecule `COc1cc(CNCCN2CCN(Cc3ccccc3)CC2)ccc1O`, the IC50 (as a rule, the midpoint of a concentration-inhibition curve) was determined as 181 nM against Acetylcholinesterase and 18.3 nM against Cholinesterase. The Ratio IC50 in data set [1] came to 0.1. Further, the Activity in data set [2] is 1.28 equiv. Further, the inhibition (as a rule, the drop in the measured response relative to a control, in per cent) in data set [3] amounted to 71.9%.

In the case of `COc1ccc(CNCCCN2CCC(Cc3ccccc3)CC2)cc1OC`, the IC50 against Acetylcholinesterase amounted to 75.3 nM; on Cholinesterase, 190 nM. Besides, the Ratio IC50 in data set [1] was determined as 2.52. In addition, the Activity in data set [2] came to 1.22 equiv. This molecule also yielded an inhibition in data set [3] of 84.4%. The Ratio in data set [4] amounted to 1.51.

For `COc1ccc(CNCCCCN2CCN(C(c3ccccc3)c3ccccc3)CC2)cc1OC`, the Activity in data set [2] is reported as 1.35 equiv. For the same molecule, the inhibition in data set [3] worked out at 57.8%.

For `COc1cc(CNCCCCN2CCC(Cc3ccccc3)CC2)cc(OC)c1OC`, the figures for the half-inhibitory concentration (IC50) at Acetylcholinesterase and at Cholinesterase were 12.8 nM and 16.7 nM, respectively. For the same molecule, the Ratio IC50 in data set [1] turned out to be 1.3. For the same molecule, the Activity in data set [2] was found to be 2.45 equiv. The inhibition in data set [3] is 85.4%. Also, the Ratio in data set [4] turned out to be 1.51.

For the molecule `COc1cc(CNCCCN2CCC(Cc3ccccc3)CC2)cc(OC)c1OC`, the figures for the IC50 against Acetylcholinesterase and against Cholinesterase were 8.56 nM and 23.1 nM, respectively. Also, in data set [1], the Ratio IC50 is 2.69. The Activity in data set [2] stood at 1.41 equiv. The molecule also showed an inhibition in data set [3] of 78.2%. Besides, the Ratio in data set [4] worked out at 1.51.

Take `c1ccc(CN2CCN(CCCCNCc3cccnc3)CC2)cc1`: the IC50 on Acetylcholinesterase was 134 nM; against Cholinesterase it was 104 nM. In data set [1], the Ratio IC50 stood at 0.78. Also, the Activity in data set [2] came to 0.64 equiv. The same molecule came in with an inhibition in data set [3] of 69.3%.

As for `COc1ccc(CNCCCN2CCN(C(c3ccccc3)c3ccccc3)CC2)cc1OC`, the Activity in data set [2] amounted to 2.21 equiv. Further, in data set [3], the inhibition was determined as 65.6%.

Turning to `COc1cc(CNCCCN2CCC(Cc3ccccc3)CC2)ccc1O`, the values for the half-maximal inhibitory concentration (IC50) at Acetylcholinesterase and against Cholinesterase were 6.83 nM and 7.61 nM, respectively. For the same molecule, the Ratio IC50 in data set [1] was determined as 1.11; in data set [5] it was 7. Moreover, the Activity in data set [2] is 3.74 equiv. In addition, the inhibition in data set [3] was 88%. Moreover, the Ratio in data set [4] turned out to be 1.51.

On to `COc1cc(CNCCCN2CCN(Cc3ccccc3)CC2)ccc1O`, for which the IC50 against Acetylcholinesterase worked out at 13.5 nM; against Cholinesterase it was 18.8 nM. The Ratio IC50 in data set [1] came out at 1.38. Also, the Activity in data set [2] worked out at 1.99 equiv. In addition, the inhibition in data set [3] turned out to be 67.2%.

`COc1cc(CNCCCN2CCN(C(c3ccccc3)c3ccccc3)CC2)ccc1O`: the Activity in data set [2] turned out to be 2.68 equiv. The molecule further returned an inhibition in data set [3] of 54.2%.

Turning to `COc1cc(CNCCN2CCN(Cc3ccccc3)CC2)cc(OC)c1OC`, the 50% inhibitory concentration (IC50) on Acetylcholinesterase is 96.5 nM; on Cholinesterase it was 75.1 nM. The Ratio IC50 in data set [1] stood at 0.77. Also, the Activity in data set [2] is 2.77 equiv. The inhibition in data set [3] amounted to 75.5%.

Consider `COc1cc(CNCCN2CCN(C(c3ccccc3)c3ccccc3)CC2)ccc1O`, for which, in data set [2], the Activity was found to be 2.31 equiv. Also, the inhibition in data set [3] was found to be 43.5%.

As to `COc1cc(CNCCN2CCC(Cc3ccccc3)CC2)cc(OC)c1OC`, the IC50 at Acetylcholinesterase amounted to 35.8 nM; against Cholinesterase, 53.4 nM. For the same molecule, the Ratio IC50 in data set [1] stood at 1.48. Further, the Activity in data set [2] came to 1.38 equiv. The molecule further came in with an inhibition in data set [3] of 75%.

As for `COc1ccc(CNCCN2CCN(Cc3ccccc3)CC2)cc1OC`, the values for the 50% inhibitory concentration (IC50) on Acetylcholinesterase and against Cholinesterase were 682 nM and 274 nM, respectively. For the same molecule, the Ratio IC50 in data set [1] stood at 0.4. In data set [2], the Activity is 0.95 equiv. In data set [3], the inhibition was determined as 80.7%. Besides, in data set [4], the Ratio came out at 1.71.

Regarding `COc1ccc(CNCCCCN2CCC(Cc3ccccc3)CC2)cc1OC`, the IC50 was 202 nM against Acetylcholinesterase and 49.1 nM against Cholinesterase. Besides, in data set [1], the Ratio IC50 was 0.24. The Activity in data set [2] stood at 1.06 equiv. This molecule had an inhibition in data set [3] of 80.7%. Moreover, in data set [4], the Ratio worked out at 1.51.

Consider `COc1cc(CNCCCN2CCN(C(c3ccccc3)c3ccccc3)CC2)cc(OC)c1OC`, for which the Activity in data set [2] worked out at 2.47 equiv. In addition, the inhibition in data set [3] was determined as 68.2%.

For the molecule `COc1ccc(CNCCCN2CCN(Cc3ccccc3)CC2)cc1OC`, the IC50 against Acetylcholinesterase turned out to be 112 nM; against Cholinesterase, 331 nM. Also, the Ratio IC50 in data set [1] amounted to 2.94. Also, in data set [2], the Activity is 1.4 equiv. Besides, the inhibition in data set [3] was determined as 79.7%. In data set [4], the Ratio came out at 1.71.

As to `COc1cc(CNCCCCN2CCN(Cc3ccccc3)CC2)cc(OC)c1OC`, the IC50 is 138 nM against Acetylcholinesterase and 32.7 nM on Cholinesterase. In addition, the Ratio IC50 in data set [1] stood at 0.23. For the same molecule, in data set [2], the Activity is on record as 1.24 equiv. In addition, the inhibition in data set [3] is 80.4%. Also, the Ratio in data set [4] worked out at 1.71.

Take `COc1cc(CNCCN2CCC(Cc3ccccc3)CC2)ccc1O`: the IC50 on Acetylcholinesterase is 38.3 nM; against Cholinesterase, 4.2 nM. Also, the Ratio IC50 in data set [1] turned out to be 0.1. Moreover, the Activity in data set [2] turned out to be 4.04 equiv. In data set [3], this molecule showed an inhibition of 84.4%. The Ratio in data set [4] stood at 1.51.

`c1ccc(CC2CCN(CCNCc3cccnc3)CC2)cc1`: the IC50 on Acetylcholinesterase is 32.8 nM; against Cholinesterase, 101 nM. Further, the Ratio IC50 in data set [1] was determined as 3.07. For the same molecule, in data set [2], the Activity is reported as 1.32 equiv. Moreover, the inhibition in data set [3] was determined as 84.4%. The Ratio in data set [4] amounted to 1.51.

As for `COc1cc(CNCCCCN2CCN(Cc3ccccc3)CC2)ccc1O`, the IC50 against Acetylcholinesterase was determined as 136 nM; against Cholinesterase, 13.9 nM. For the same molecule, in data set [1], the Ratio IC50 was found to be 0.1. The Activity in data set [2] was found to be 1.64 equiv. Besides, the inhibition in data set [3] came out at 72.4%.

`COc1ccc(CNCCN2CCN(C(c3ccccc3)c3ccccc3)CC2)cc1OC`: the Activity in data set [2] is on record as 1.77 equiv. In data set [3], this molecule came in with an inhibition of 67.6%.

With `COc1cc(CNCCCN2CCN(Cc3ccccc3)CC2)cc(OC)c1OC`, the half-maximal inhibitory concentration (IC50) at Acetylcholinesterase worked out at 81.8 nM; against Cholinesterase, 41.5 nM. Further, in data set [1], the Ratio IC50 worked out at 0.5. In addition, the Activity in data set [2] is given as 1.31 equiv. In data set [3], this molecule gave an inhibition of 79.7%. Also, the Ratio in data set [4] was 1.71.

As for `COc1cc(CNCCCCN2CCN(C(c3ccccc3)c3ccccc3)CC2)cc(OC)c1OC`, in data set [2], the Activity was 1.63 equiv. The same molecule registered an inhibition in data set [3] of 57.3%.

Consider `COc1cc(CNCCN2CCN(C(c3ccccc3)c3ccccc3)CC2)cc(OC)c1OC`, for which the Activity in data set [2] came out at 2.38 equiv. This molecule registered an inhibition in data set [3] of 68.7%.

In the case of `c1ccc(CN2CCN(CCNCc3cccnc3)CC2)cc1`, the half-maximal inhibitory concentration (IC50) amounted to 140 nM at Acetylcholinesterase and 129 nM at Cholinesterase. Further, the Ratio IC50 in data set [1] was determined as 0.92. Further, the Activity in data set [2] turned out to be 1.02 equiv. This molecule registered an inhibition in data set [3] of 56.8%.

Take `COc1ccc(CNCCCCN2CCN(Cc3ccccc3)CC2)cc1OC`: the results for the half-maximal inhibitory concentration (IC50) at Acetylcholinesterase and against Cholinesterase were 163 nM and 142 nM, respectively. Moreover, in data set [1], the Ratio IC50 amounted to 0.86. Besides, in data set [2], the Activity stood at 0.61 equiv. Also, in data set [3], the inhibition is 67.7%.

On to `c1ccc(CC2CCN(CCCNCc3cccnc3)CC2)cc1`, for which the half-maximal inhibitory concentration (IC50) at Acetylcholinesterase was determined as 2.13 nM; against Cholinesterase, 81.7 nM. Further, the figures for the Ratio IC50 in data set [1] and in data set [5] were 38.4 and 22, respectively. Besides, the Activity in data set [2] turned out to be 1.18 equiv. For the same molecule, the inhibition in data set [3] was determined as 88.8%. In addition, the Ratio in data set [4] was determined as 1.51.

As for `COc1cc(CNCCCCN2CCC(Cc3ccccc3)CC2)ccc1O`, the values for the half-maximal inhibitory concentration (IC50) against Acetylcholinesterase and on Cholinesterase were 11.5 nM and 3.87 nM, respectively. Further, the Ratio IC50 in data set [1] is 0.33. The Activity in data set [2] was determined as 4.45 equiv. This molecule displayed an inhibition in data set [3] of 71.3%.

`COc1ccc(CNCCN2CCC(Cc3ccccc3)CC2)cc1OC`: the results for the IC50 at Acetylcholinesterase and against Cholinesterase were 182 nM and 77.7 nM, respectively. In addition, in data set [1], the Ratio IC50 is 0.42. Besides, in data set [2], the Activity is recorded as 0.61 equiv. In addition, the inhibition in data set [3] turned out to be 54.7%.

On to `c1ccc(CC2CCN(CCCCNCc3cccnc3)CC2)cc1`, for which the IC50 against Acetylcholinesterase came to 7.72 nM; against Cholinesterase, 34 nM. Besides, the figures for the Ratio IC50 in data set [1] and in data set [5] were 4.4 and 6, respectively. Besides, the Activity in data set [2] amounted to 1.59 equiv. Besides, the inhibition in data set [3] was determined as 78.6%. Further, the Ratio in data set [4] was found to be 1.51.

In the case of `c1ccc(CN2CCN(CCCNCc3cccnc3)CC2)cc1`, the IC50 against Acetylcholinesterase is 23.1 nM; against Cholinesterase it was 209 nM. Also, the Ratio IC50 in data set [1] is 9.03. Moreover, the Activity in data set [2] is given as 0.65 equiv. Further, the inhibition in data set [3] is 63%.
